Results reported in publication PMC4072787 (PLoS Pathogens, 2014).
“Also recorded” adds a separate entry of the source. Read-outs that look alike come from different tables or passages of the source.

Experiments:
[1] = test system: VEEV TC-83; settings: mouse, in vivo; cited from earlier work
[2] = test system: VEEV TC-83; assay: microbe, parasite or virus in culture; type: cell-based; settings: Venezuelan equine encephalitis virus, Vero 76
[3] = test system: VEEV TC-83; assay: microbe, parasite or virus in culture; type: cell-based; settings: Venezuelan equine encephalitis virus, Vero 76, read-out: IC50 against TC-83 1º
[4] = test system: VEEV TC-83; assay: microbe, parasite or virus in culture; type: cell-based; settings: Venezuelan equine encephalitis virus
[5] = test system: VEEV V3526; assay: microbe, parasite or virus in culture; type: cell-based; settings: Venezuelan equine encephalitis virus
[6] = test system: VEEV TrD; assay: microbe, parasite or virus in culture; type: cell-based; settings: Venezuelan equine encephalitis virus
[7] = test system: EEEV strain FL91; assay: microbe, parasite or virus in culture; type: cell-based, Eastern equine encephalitis virus
[8] = test system: WEEV (VR-70); assay: microbe, parasite or virus in culture; type: cell-based; settings: Western equine encephalitis virus, Vero, 72 h, read-out: Antiviral Activity (IC50), WEEV
[9] = test system: CHIKV; assay: microbe, parasite or virus in culture; type: cell-based, Chikungunya virus
[10] = test system: Ebola virus (Zaire)-GFP; assay: microbe, parasite or virus in culture; type: cell-based
[11] = test system: RSV (strain Long); assay: microbe, parasite or virus in culture; type: cell-based, human respiratory syncytial virus
[12] = test system: VACV-LREV; assay: microbe, parasite or virus in culture; type: cell-based, vaccinia virus (western reserve)
[13] = test system: VSV-EGFP; assay: microbe, parasite or virus in culture; type: cell-based, vesicular stomatitis virus
[14] = test system: VEEV TC-83; type: cell-based, Venezuelan equine encephalitis virus
[15] = test system: VEEV TrD; type: cell-based, Venezuelan equine encephalitis virus
[16] = test system: VEEV TC-83; type: cell-based, Venezuelan equine encephalitis virus; remark: listed apart in the source
[17] = test system: VEEV TC-83 RNA; type: cell-based, Venezuelan equine encephalitis virus
[18] = test system: VEEV TC-83 proteins; type: cell-based, Venezuelan equine encephalitis virus
[19] = test system: VEEV TC-83; type: cell-based, Venezuelan equine encephalitis virus; remark: listed apart in the source
[20] = mouse, in vivo
[21] = 16 hr.
[22] = microsomes
[23] = in vivo; settings: mouse, ip
[24] = in vitro; settings: African green monkey
[25] = physchem
[26] = in vitro; settings: mouse, plasma
[27] = in vitro; settings: microsomes
[28] = in vitro; settings: mouse; for fraction unbound: plasma
[29] = in vitro; settings: dog, MDCK-MDR1
[30] = test system: MDR1; assay: in vitro; settings: dog, MDCK-MDR1
[31] = in vitro; settings: PAMPA
[32] = Vero 76, read-out: IC50 against TC-83 2º

Q: For (−)-carbodine, which Survival [1] is on record?
A: 50%

Q: For `CCN1CCN(Cc2nc3ccc([N+](=O)[O-])cc3c(=O)n2-c2ccccc2F)CC1` [CID15997213], which inhibition at 20 µM [2] is on record?
A: 73%

Q: And the IC50 [3]?
A: 1.91 µM

Q: What about the IC50 [4, 32] of the same compound?
A: 1.3 µM

Q: And the IC50 ([4]; read-out: IC50, VEEV TC-83)?
A: 0.84 µM

Q: What about the IC50 ([5]; read-out: Antiviral Activity (IC50), VEEV V3526) of the same compound?
A: 0.67 µM

Q: What about the IC50 ([5]; read-out: IC50, V3526) of the same compound?
A: 0.32 µM

Q: And the IC50 ([5]; read-out: IC50 against V3526)?
A: 1.01 µM

Q: What about the IC50 ([6]; N2a, read-out: Antiviral Activity (IC50), VEEV TrD) of the same compound?
A: 0.48 µM

Q: And the IC50 ([6]; Vero 76, read-out: Antiviral Activity (IC50), VEEV TrD)?
A: 0.38 µM

Q: What about the IC50 ([6]; read-out: IC50, VEEV TrD) of the same compound?
A: 0.36 to 0.48 µM

Q: And the “Antiviral Activity (IC50), EEEV” value [7]?
A: no activity

Q: What about the IC50 ([7]; Eastern equine encephalitis virus, Vero, 40 h, read-out: Antiviral Activity (IC50), EEEV) of the same compound?
A: > 20 µM

Q: What about the IC50 [8] of the same compound?
A: 10 µM

Q: And the “Antiviral Activity (IC50), CHIKV” value [9]?
A: not inhibited

Q: And the IC50 ([9]; Chikungunya virus, 72 h, read-out: Antiviral Activity (IC50), CHIKV)?
A: > 50 µM

Q: And the “Antiviral Activity (IC50), Ebola virus (Zaire)-GFP” value [10]?
A: No antiviral activity

Q: What about the IC50 ([10]; Zaire ebolavirus, HeLa, 24 h, read-out: Antiviral Activity (IC50), Ebola virus (Zaire)-GFP) of the same compound?
A: > 10 µM

Q: And the “Antiviral Activity (IC50), RSV” value [11]?
A: No antiviral activity

Q: And the IC50 ([11]; human respiratory syncytial virus, HEp-2, 120 h, read-out: Antiviral Activity (IC50), RSV)?
A: > 50 µM

Q: What about the “Antiviral Activity (IC50), VACV-LREV” value [12] of the same compound?
A: No antiviral activity

Q: What about the IC50 ([12]; Vaccinia virus Western Reserve, A549, 18 h, read-out: Antiviral Activity (IC50), VACV-LREV) of the same compound?
A: > 20 µM

Q: What about the “Antiviral Activity (IC50), VSV-EGFP” value [13] of the same compound?
A: No antiviral activity

Q: What about the IC50 ([13]; Vesicular stomatitis virus, A549, 18 h, read-out: Antiviral Activity (IC50), VSV-EGFP) of the same compound?
A: > 20 µM

Q: And the “Progeny virus in titer reduction assay” value [14]?
A: No progeny virus was detected

Q: What about the “Progeny virus in titer reduction assay” value [15] of the same compound?
A: No progeny virus was detected

Q: And the Plaque formation [16]?
A: no visible plaques

Q: And the “Reduction in viral RNA levels as compared to the control” value [17]?
A: > 8,000 fold

Q: What about the “Viral protein level (western blot)” value [18] of the same compound?
A: dramatic decrease in viral protein level; also recorded: not able to detect viral proteins

Q: And the “Virus production still occurring, of the maximum” value [19]?
A: 90%

Q: What about the “Acute toxicity, clinical signs” value [20] of the same compound?
A: no acute toxicity

Q: And the “Toxicity (body weight loss, adverse effects)” value [20]?
A: No apparent toxicity

Q: What about the Aqueous solubility [21] of the same compound?
A: >100 µM

Q: What about the microsomal stability [22] of the same compound?
A: good

Q: And the MTD [23]?
A: ≥ 800 mg/kg

Q: And the CC50 [24]?
A: > 25 µM

Q: And the solubility [25]?
A: > 100 µM

Q: And the half-life [26]?
A: > 4 h

Q: What about the microsomal CLint [27] of the same compound?
A: 31.4 µL/min/mg

Q: And the recovery [28]?
A: 89%

Q: And the fraction unbound ([28]; Mean plasma fraction bound)?
A: 0.324

Q: And the fraction unbound ([28]; Mean plasma fraction unbound)?
A: 0.324

Q: And the fraction unbound ([28]; protein binding)?
A: 0.68

Q: And the Papp A→B [29]?
A: 7.2 ×10⁻⁶ cm/s

Q: And the Papp B→A [29]?
A: 38.5 ×10⁻⁶ cm/s

Q: What about the efflux ratio [30] of the same compound?
A: 5.3

Q: And the Papp [31]?
A: 42 ×10⁻⁶ cm/s

Q: What does the source list for `O=c1nc(Nc2ccc(OCc3ccccc3)cc2)sc2ncccc12` [compound 1258664]?
A: inhibition at 20 µM [2]: 63.2%; IC50 [3]: 2.86 µM; IC50 [4, 32]: 2.38 µM; IC50 ([5]; read-out: IC50 against V3526): 3.67 µM; CC50 [24]: > 25 µM

Q: Which inhibition at 20 µM [2] does the source give for `O=C(Cc1cccs1)Nc1nc2c(s1)CCCC2` [compound 847035] here?
A: 27.8%

Q: What about the IC50 [3] of the same compound?
A: 6.38 µM

Q: What about the IC50 [4, 32] of the same compound?
A: 4.71 µM

Q: And the IC50 ([5]; read-out: IC50 against V3526)?
A: 7.09 µM

Q: And the CC50 [24]?
A: > 25 µM

Q: Which inhibition at 20 µM [2] does the source give for `CCOC(=O)c1ccc(Nc2nc(=O)c3cccnc3s2)cc1` [compound 1259240] here?
A: 49%

Q: What about the IC50 [3] of the same compound?
A: 6.32 µM

Q: What about the IC50 [4, 32] of the same compound?
A: 7.07 µM

Q: And the IC50 ([5]; read-out: IC50 against V3526)?
A: 10.8 µM

Q: What about the CC50 [24] of the same compound?
A: > 25 µM

Q: Which results are given for `Clc1ccc2nnnc(-c3ccccc3)c2c1` [compound 902491]?
A: inhibition at 20 µM [2]: 42.1%; IC50 [3]: 9.71 µM; IC50 [4, 32]: 3.45 µM; IC50 ([5]; read-out: IC50 against V3526): 6.12 µM; CC50 [24]: > 25 µM

Q: Which inhibition at 20 µM [2] does the source give for `O=C(Oc1ccc2ccccc2c1Br)N1CCCCCC1` [compound 2928803] here?
A: 42.8%

Q: And the IC50 [3]?
A: 4.26 µM

Q: What about the IC50 [4, 32] of the same compound?
A: > 50 µM

Q: What about the IC50 ([5]; read-out: IC50 against V3526) of the same compound?
A: > 50 µM

Q: What about the CC50 [24] of the same compound?
A: > 25 µM
